Entries after “also recorded” stand apart in the source; their conditions may differ.
Legend:
GAL4-hRARγ = target: T1, GAL4-hRARγ (Homo sapiens, UniProt P13631); test: Cotransfection with GAL4 chimeric receptor, TK-MH100×4-LUC reporter in CV-1 cells; format: cell-based; conditions: 10^-5 M ligand
T1 construct: CMX plasmid, CV-1 cells, TK-MH100x4-LUC
T1 sequence (P13631 187-454): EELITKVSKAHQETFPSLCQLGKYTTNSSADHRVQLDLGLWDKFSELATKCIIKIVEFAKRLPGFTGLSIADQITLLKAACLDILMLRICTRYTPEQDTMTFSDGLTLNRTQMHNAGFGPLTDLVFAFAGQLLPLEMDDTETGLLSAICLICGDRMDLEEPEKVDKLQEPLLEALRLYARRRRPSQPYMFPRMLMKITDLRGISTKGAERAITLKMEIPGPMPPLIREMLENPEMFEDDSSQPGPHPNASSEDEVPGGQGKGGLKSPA
From the text: (§1) Thus, CV-1 cells were cotransfected with the expression plasmid CMX-GAL4-hRXRα, CMX-GAL4-hRARα, CMX-GAL4-RARβ or CMX-GAL4-RARγ and the reporter plasmid TK-MH100×4-LUC. The constructs consisted of the GAL4 DNA binding domain (amino acids 1-147; see Sadowski and Ptashne in Nucl. Acids Res. 17:7539 (1989)) ligated in frame to the ligand binding and C-terminal activation domains of hRARα (amino acids 203-462; see Giguere et al., in Nature 330:624 (1987), hRARβ (amino acids 178-448; see Brand et al., in Nature 332:850 (1988), RARγ (amino acids 187-454; see Ishikawa et al., in Mol. Endo. 4:837 (1990) and RXRα (amino acids 203-462; see Mangelsdorf et al., in Nature 345:224 (1990). These GAL4-receptor chimeras were then introduced into CMX expression vectors (see Umesono et al., in Cell 65:1255 (1991)). The GAL4-responsive reporter plasmid, TK-MH100×4-LUC, was constructed by inserting 4 copies of the yeast UASG enhancer (i.e., MH100; see Webster et al., in Cell 52:169 (1988)) into the luciferase reporter plasmid TK-LUC. CV-1 cells seeded into 48 well culture plates were co-transfected with 80 ng of the reporter plasmid TK-Mh100×4-LUC, 50 ng of CMX-βgal expression plasmid, and 80 ng of receptor expression plasmid (either CMX-GAL4 as a control, CMX-GAL4-hRARα, CMX-GAL4-hRARβ, CMX-GAL4-hRARγ or CMX-GAL4-hRXRα). […] Cotransfections, ligand addition and luciferase assays were performed as described in Example 3.
(§2) The above-described chimeric proteins can bind to a GAL4 upstream activation sequence (UASG) in the promoter of a luciferase reporter, but can only activate transcription in the presence of the hybrid receptor's ligand. The distinct advantage of using the GAL4-receptor system, instead of the wild-type receptors and response elements, is that the GAL4-hybrids provide a sensitive and effective means for assaying receptor/ligand interactions, even in the presence of the cell's endogenous wild-type receptors.

GAL4-hRARβ = target: T2, GAL4-hRARβ (Homo sapiens, UniProt P10826); test: as above; format: cell-based; conditions: 10^-5 M ligand
T2 construct: CMX plasmid, CV-1 cells, TK-MH100x4-LUC
T2 sequence (P10826 185-455): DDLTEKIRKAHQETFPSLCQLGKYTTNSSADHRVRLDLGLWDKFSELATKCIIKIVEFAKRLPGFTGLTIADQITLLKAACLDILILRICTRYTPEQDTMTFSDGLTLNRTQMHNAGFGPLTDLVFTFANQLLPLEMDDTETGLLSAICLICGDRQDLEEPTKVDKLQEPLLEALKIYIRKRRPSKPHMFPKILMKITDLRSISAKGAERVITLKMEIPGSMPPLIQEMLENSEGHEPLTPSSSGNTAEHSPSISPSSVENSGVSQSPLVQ
From the text: as §1, §2

GAL4-hRARα = target: T3, GAL4-hRARα (Homo sapiens, UniProt P10276); test: as above; format: cell-based; conditions: 10^-5 M ligand
T3 construct: CMX plasmid, CV-1 cells, TK-MH100x4-LUC
T3 sequence (P10276 203-462): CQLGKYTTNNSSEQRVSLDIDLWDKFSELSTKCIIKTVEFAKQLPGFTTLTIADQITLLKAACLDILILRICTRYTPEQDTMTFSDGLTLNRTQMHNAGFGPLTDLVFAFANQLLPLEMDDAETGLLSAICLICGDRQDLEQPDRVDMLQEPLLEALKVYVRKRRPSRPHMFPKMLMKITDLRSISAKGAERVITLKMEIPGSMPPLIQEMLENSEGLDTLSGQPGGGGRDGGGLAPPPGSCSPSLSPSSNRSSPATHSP
From the text: as §1, §2

hRXRα [1] = target: T4, hRXRα (Homo sapiens, UniProt P19793); test: Cotransfection assay in Schneider cells, RXR expression plasmid and ADH-CRBPII-LUC luciferase reporter; format: cell-based; conditions: for activation of RXR (transcription from the reporter construct), in words: Schneider cells, ADH-CRBPII-LUC
T4 sequence (P19793 1-462): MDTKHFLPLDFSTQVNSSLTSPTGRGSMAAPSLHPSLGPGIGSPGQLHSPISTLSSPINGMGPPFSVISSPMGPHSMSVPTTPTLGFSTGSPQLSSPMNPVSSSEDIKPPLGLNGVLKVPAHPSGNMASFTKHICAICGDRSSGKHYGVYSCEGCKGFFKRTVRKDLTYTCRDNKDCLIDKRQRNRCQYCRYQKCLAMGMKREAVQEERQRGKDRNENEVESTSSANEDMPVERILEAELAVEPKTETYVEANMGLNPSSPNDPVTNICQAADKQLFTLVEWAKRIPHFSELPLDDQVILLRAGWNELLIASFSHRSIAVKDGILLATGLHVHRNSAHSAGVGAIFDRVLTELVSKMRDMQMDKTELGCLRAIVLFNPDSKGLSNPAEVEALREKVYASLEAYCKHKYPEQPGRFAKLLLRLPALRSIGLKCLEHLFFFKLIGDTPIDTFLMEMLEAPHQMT
Protocol: Candidate ligands were initially tested in Schneider cells cotransfected with an RXR expression plasmid and a luciferase reporter plasmid containing an RXR specific response element.
Cell lysates were then assayed for luciferase activity, which is expressed as relative light units (RLU) and represents the mean of triplicate assays (±SEM) normalized to β-galactosidase as an internal control. […] After 24 hours, ligand was added to the transfected cells. Thirty six hours later, the cells were harvested and extracts prepared and assayed for enzyme activity as described by Heyman et al., supra, and Clayton, supra. Luciferase values were normalized for transfection and harvesting efficiency by measuring β-galactosidase activity, and the results reported as average relative light units (RLU) for at least two replicates.

GAL4-hRXRα = target: T5, GAL4-hRXRα (Homo sapiens, UniProt P19793); test: Cotransfection with GAL4 chimeric receptor, TK-MH100×4-LUC reporter in CV-1 cells; format: cell-based; conditions: 10^-5 M ligand
T5 construct: CMX plasmid, CV-1 cells, TK-MH100x4-LUC
T5 sequence (P19793 203-462): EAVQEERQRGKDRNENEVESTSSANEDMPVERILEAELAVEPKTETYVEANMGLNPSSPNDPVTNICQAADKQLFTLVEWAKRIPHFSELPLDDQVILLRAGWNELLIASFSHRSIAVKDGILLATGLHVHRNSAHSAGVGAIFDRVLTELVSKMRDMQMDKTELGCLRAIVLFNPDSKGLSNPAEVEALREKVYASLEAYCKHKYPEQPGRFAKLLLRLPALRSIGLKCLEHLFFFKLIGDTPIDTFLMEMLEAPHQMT
From the text: as §1, §2

hRXRα [2] = target: T4, hRXRα; test: Competitive ligand binding, competition for [3H]9cRA binding; conditions: 40 nM [3H]9cRA, increasing concentrations of unlabelled compound
Protocol: Binding analysis was performed as described by Boehm et al., in J. Med. Chem. 37:2930-2941 (1994). Compounds used in these studies were prepared according to Wecksler and Norman (Anal. Biochem. 92:314-323 (1979).

RXR-alpha = test: Expression of genes under the control of regulatory elements of apolipoprotein AI; format: cell-based
mouse RXRβ = test: Transactivation dose response, CRBPII-LUC reporter in Schneider and CV-1 cells; format: cell-based; conditions: Schneider cells and CV-1 cells
Protocol: (§3) Cell lysates were then assayed for luciferase activity, which is expressed as relative light units (RLU) and represents the mean of triplicate assays (±SEM) normalized to β-galactosidase as an internal control. Thus, Schneider cells in 6-well culture plates were co-transfected with 0.5 μg ADH-CRBPII-LUC, 0.5 μg A5C-βgal and 1 μg of receptor plasmid (either A5C-mRXRα, A5C-mRXRβ, A5C-mRXRγ or A5C-hRXRα) by the CaPO4 precipitation method, as described by Heyman et al., in Cell 68:397 (1992) and Clayton in Aspects of Terpenoid Chemistry and Biology, T. W. Goodwin, ed. (Academic Press, London) pp. 1-23 (1971). After 24 hours, ligand was added to the transfected cells. Thirty six hours later, the cells were harvested and extracts prepared and assayed for enzyme activity as described by Heyman et al., supra, and Clayton, supra. Luciferase values were normalized for transfection and harvesting efficiency by measuring β-galactosidase activity, and the results reported as average relative light units (RLU) for at least two replicates.
(§4) To further test the ability of methoprene acid to function as an RXR ligand, the transactivation properties of methoprene on all three RXR subtypes was investigated. FIG. 3 presents the dose responses of the three RXR subtypes to methoprene acid in insect Schneider cells (FIG. 3A), or mammalian CV-1 cells (FIG. 3B) cotransfected with expression plasmids for mouse RXRα, RXRβ, or RXRγ and the reporter plasmid ADH-CRBPII-LUC (for Schneider cells) or TK-CRBPII-LUC (for CV-1 cells).
(§5) Experiments in Schneider cells were conducted as described in Example 1. Experiments in CV-1 cells were conducted as follows. CV-1 cells were seeded into 48-well sulture dishes and co-transfected with 50 ng of TK-CRBPII-LUC reporter plasmid, 50 ng of CMX-βgal expression plasmid, and 25 ng of expression plasmid for receptor (either CMX-mRXRα, CMX-mRXRβ or CMX-mRXRγ) by the CaPO4 precipitation method, as described by Heyman et al., supra and Clayton supra. […] Luciferase activity was determined as described by Unsworth et al., in Life Sciences 15:1649 (1974).

mouse RXRα = test: as above; format: cell-based; conditions: Schneider cells and CV-1 cells
Protocol: as §3, §4, §5

mouse RXRγ = test: as above; format: cell-based; conditions: Schneider cells and CV-1 cells
Protocol: as §3, §4, §5

[3] = previous studies (Quistad et al.); a major product is methoprene acid; cited from earlier work
[4] = 36 h, read-out: induction of luciferase reporter above methanol control

For CC1=C(/C=C/C(C)=C\C=C\C(C)=C\C(=O)O)C(C)(C)CCC1 [9cRA, 9-cis-retinoic acid, reference compound], which “activation of transcription with GAL4-RARγ, in words” value (GAL4-hRARγ) is on record?
The value was “can activate transcription”.

And the “activation of transcription with GAL4-RARβ, in words” value (GAL4-hRARβ)?
Its value is “can activate transcription”.

And the “activation of transcription with GAL4-RARα, in words” value (GAL4-hRARα)?
The value was “can activate transcription”.

For COC(=O)/C=C(\C)CC/C=C(\C)CCC1OC1(C)C (stereo not drawn) [JH III, methyl (2E,6E)-10,11-epoxy-3,7,11-trimethyl-2,6dodecadienoate, reference compound], which “activation of RXR (transcription from the reporter construct), in words” value (hRXRα [1]) is on record?
The value was “do not activate RXR”.

For C/C(=C\c1ccc(C(=O)O)cc1)c1ccc2c(c1)C(C)(C)CCC2(C)C [TTNPB, (E)-4-[2-(5,6,7,8-tetrahydro-5,5,8,8-tetramethyl-2-napthalenyl)-1-propenyl]benzoic acid, reference compound], which “activation of transcription with GAL4-RXR, in words” value (GAL4-hRXRα) is on record?
The value was “exclusive response”.

For CC(C)=CCC/C(C)=C/CC/C(C)=C/CO [farnesol, (2E,6E,10E)-3,7,11-trimethyl-2,6,10-dodecatrienol, reference compound], which “activation of RXR (transcription from the reporter construct), in words” value (hRXRα [1]) is on record?
The value was “do not activate RXR”.

What does the source list for CC(/C=C/CC(C)CCCC(C)C)=C\C(=O)O (stereo not drawn) [hydroprene acid]?
fold induction at 100 µM (hRXRα [1]; [4]): 81; competition for [3H]9cRA binding to RXRα, in words (hRXRα [2]): observed to bind RXR

Which results are given for CCOC(=O)/C=C(C)/C=C/CC(C)CCCC(C)C (stereo not drawn) [hydroprene, ethyl (2E,4E)-3,7,11-trimethyl-2,4-dodecadienoate]?
activation of RXR (transcription from the reporter construct), in words (hRXRα [1]): activate RXR; competition for [3H]9cRA binding to RXRα, in words (hRXRα [2]): not

What does the source list for COC(C)(C)CCCC(C)C/C=C/C(C)=C/C(=O)O (stereo not drawn) [methoprene acid]?
fold induction at 10 µM (hRXRα [1]; [4]): 95; activation of transcription with GAL4-RARγ, in words (GAL4-hRARγ): specific for activation of only the GAL4-RXR; activation of transcription with GAL4-RARβ, in words (GAL4-hRARβ): specific for activation of only the GAL4-RXR; activation of transcription with GAL4-RARα, in words (GAL4-hRARα): specific for activation of only the GAL4-RXR; activation of transcription with GAL4-RXR, in words (GAL4-hRXRα): specific for activation of only the GAL4-RXR; effect of RXR-alpha in the presence of ligand on expression of genes under apolipoprotein AI regulatory elements (RXR-alpha): strong effect; response of RXRβ (transactivation), in words (mouse RXRβ): responds only weakly; response of RXRα (transactivation), in words (mouse RXRα): respond strongly; response of RXRγ (transactivation), in words (mouse RXRγ): respond strongly; competition for [3H]9cRA binding to RXRα, in words (hRXRα [2]): competes well

What does the source list for COC(C)(C)CCCC(C)C/C=C/C(C)=C/C(=O)OC(C)C (stereo not drawn) [methoprene, isopropyl (2E,4E)-11-methoxy-3,7,11-trimethyl-2,4-dodecadienoate]?
fold induction at 100 µM (hRXRα [1]; [4]): 80; activation of RXR (transcription from the reporter construct), in words (hRXRα [1]): activate RXR; competition for [3H]9cRA binding to RXRα, in words (hRXRα [2]): unable to displace 9cRA binding at any concentration; also recorded: unable to competitively bind RXR at any concentration; metabolism within cells [3]: metabolized within cells to several products

Reference: patent publication US5990163A, “Selective modulation of processes mediated by retinoid X receptors, and compounds useful therefor” (The Salk Institute for Biological Studies, priority 1995, dated 1999)
